Test results published in patent US9938292B2 (GUANGDONG ZHONGSHENG PHARMACEUTICAL CO., LTD, priority 2014, dated 2018).
pIC50: −log10 of the molar value.

These compounds were tested on Hedgehog signaling pathway (assay: Gli-Luc luciferase reporter gene assay in C3H10T1/2/Gli-Luc cells under Shh-N stimulation). Details: 24 h, luciferase RLU, read-out: biological activity: IC50 of the inhibitory activities of compounds on the hedgehog pathway.
Type: cell-based
Method in brief: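 C3H10T1/2 cells stably carrying a Gli-responsive luciferase reporter were stimulated with 30 nM Shh-N conditioned medium plus compound (7-point dilutions, duplicate) for 24 h at 37 °C. Luciferase luminescence read from lysates; IC50 by sigmoidal fit of RLU versus log concentration.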

Row | pIC50 | Compound
1 | 6.30 to 7.00 | Cc1cn(-c2ccc(N3C[C@@H](C)N(C(=O)c4ccccc4)[C@H](C)C3)cc2)c(=O)c2cccc(-c3ccc(C#N)cc3)c12 [Embodiment 21]

Same assay, conditions: Mus musculus, C3H 10T1/2, 24 h, luciferase RLU, read-out: biological activity: IC50 of the inhibitory activities of compounds on the hedgehog pathway

Row | Compound | pIC50
2 | COc1c(N2CCN(c3ccc(C(C)(C)O)cn3)C(C)C2)cnc2c(-c3ccc(C#N)cc3)cccc12 (stereo not shown) [Embodiment 226] | ≥ 7.30
3 | COc1c(-c2ccc(N3C[C@@H](C)O[C@@H](C)C3)cc2)cnc2c1CCCC2(OC)c1ccc(C#N)cc1 (stereo partly drawn) [Embodiment 157, 4-(3-(4-((2S,6R)-2,6-dimethylmorpholino)phenyl)-4,8-dimethoxy-5,6,7,8-tetrahydroquinolin-8-yl)benzonitrile] | 5.30 to 6.00
4 | Cc1cn(-c2ccc(N3CC(C)NC(C)C3)cc2)c(=O)c2cccc(-c3ccc(C#N)cc3)c12 (stereo not shown) [Embodiment 15] | 6.30 to 7.00
5 | Cc1cn(-c2ccc(N3C[C@@H](C)O[C@@H](C)C3)nc2)c(=O)c2cccc(-c3ccc(C#N)cc3)c12 [Embodiment 66] | 6.00 to 6.30
6 | Cc1cn(-c2ccc(N3CC(C)N(C(=O)c4ccccc4)C(C)C3)cc2)c(=O)c2cccc(-c3ccc(C#N)cc3)c12 (stereo not shown) [Embodiment 27] | ≥ 7.30
7 | COc1c(-c2ccc(N3C[C@@H](C)N(C(=O)CC(F)(F)F)[C@@H](C)C3)nc2)cnc2c(-c3ccc(C#N)cc3)cccc12 [Embodiment 197] | 6.00 to 6.30

Next, values leading:

Row | pIC50 | Compound
8 | ≥ 7.30 | COc1c(-c2ccc(N3C[C@@H](C)O[C@@H](C)C3)cc2)cnc2c(-c3ccc(Cl)c(Cl)c3)cccc12 [Embodiment 98]
9 | ≥ 7.30 | CCc1c(-c2ccc(N3C[C@@H](C)O[C@@H](C)C3)nc2)cnc2c(-c3ccc(C#N)cc3)cccc12 [Embodiment 133]
10 | ≥ 7.30 | CCC(=O)N1[C@H](C)CN(c2ccc(-c3cnc4c(-c5ccc(C#N)cc5)cccc4c3OC)cc2)C[C@@H]1C [Embodiment 180, 4-(3-(4-((3S, 5R)-3,5-dimethyl-4-propionylpiperazin-1-yl)phenyl)-4-methoxyquinolin-8-yl)benzonitrile]
11 | 7.00 to 7.30 | COc1c(-c2ccc(N3C[C@@H](C)O[C@@H](C)C3)cc2)cnc2c(-c3ccc(C#N)cc3)nccc12 [Embodiment 148, 4-(3-(4-((2S,6R)-2,6-dimethylmorpholino)phenyl)-4-methoxy-1,7-naphthyridin-8-yl) benzonitrile]
12 | 6.30 to 7.00 | COc1c(-c2ccc(N3C[C@@H](C)O[C@@H](C)C3)cc2)cnc2c(-c3ccc(C#N)cc3)ccnc12 [Embodiment 147, 4-(7-(4-((2S,6R)-2,6-dimethylmorpholino)phenyl)-8-methoxy-1,5-naphthyridin-4-yl) benzonitrile]
13 | 7.00 to 7.30 | COc1c(-c2ccc(N3C[C@@H](C)O[C@@H](C)C3)cc2)cnc2c(-c3ccc4c(c3)OCO4)cccc12 [Embodiment 109]
14 | ≥ 7.30 | COc1c(-c2ccc(N3C[C@@H](C)O[C@@H](C)C3)c(F)c2)cnc2c(-c3ccc(C#N)cc3)cccc12 [Embodiment 172]
15 | ≥ 7.30 | COc1c(-c2ccc(N3C[C@@H](C)O[C@@H](C)C3)nc2)cnc2c(-c3ccc(S(C)(=O)=O)cc3)cccc12 [Embodiment 161]
16 | 6.00 to 6.30 | C[C@@H]1CN(c2ccc(-c3cnc4c(-c5ccc(C#N)cc5)cccc4c3S(C)(=O)=O)cc2)C[C@H](C)O1 [Embodiment 120, 4-(3-(4-((2S,6R)-2,6-dimethylmorpholino)phenyl)-4-(methylsulfonyl)quinolin-8-yl) benzonitrile]
